Drawing on US11993598B2, “Compounds for inhibiting EGFR kinase, preparation methods and uses thereof” (WIGEN BIOMEDICINE TECHNOLOGY (SHANGHAI) CO., LTD., priority 2019, dated 2024), this text covers IC50 and GI50 for seven compounds.

Holding throughout (experiment): Cell proliferation assay (MTT)
Holding throughout (format): cell-based

For test [1], the system named is A431 (wild type EGFR, skin cancer). The following applies: Homo sapiens, A-431, 72 h, three days. On the procedure: (§1) A431 cells, H1975 and Ba/F3 cells expressing various mutant EGFR were harvested from exponential phase cultures and seeded in 96-well plates at a cell density of 3000 per well for A431 and H1975, and 10000 per well for Ba/F3 cells. After overnight attachment, compounds were 3-fold serially diluted and applied to cells at 30 μM, 10 μM, 3 μM, 1 μM, 0.3 μM, […], 0.03 μM and 0.01 μM with triplicates, and incubated for three days. 20 μL of 5 mg/mL MTT was added afterwards followed by the further addition of 50 μL 10% SDS together with 5% isobutyl alcohol in 0.01 mol/L HCl. The plates were incubated overnight. Absorbance (A) at a wavelength of 570 nm was quantified. Percentage of inhibition was used for the calculation of IC50 based on the bliss method.

Test [2] deals with Ba/F3_EGFR D770_N771insSVD (Homo sapiens, UniProt P00533, DUP768-770, cells depend on it). The following applies: three days, read-out: Ba/F3_EGFR D770_N771insSVD IC50. On the procedure:
as §1

In test [3] the target is Ba/F3_EGFR V769_D770insASV (Homo sapiens, UniProt P00533, DUP767-769, cells depend on it). The following applies: three days, read-out: Ba/F3_EGFR V769_D770insASV IC50. On the procedure:
as §1

Test [4] concerns H1975 (EGFR L858R/T790M, NSCLC). The settings on record: Homo sapiens, NCI-H1975, 72 h, three days. On the procedure: as §1

The structures appear in SMILES notation.

Chain of Ba/F3_EGFR V769_D770insASV (P00533 with tags, fused parts or gaps DUP767-769): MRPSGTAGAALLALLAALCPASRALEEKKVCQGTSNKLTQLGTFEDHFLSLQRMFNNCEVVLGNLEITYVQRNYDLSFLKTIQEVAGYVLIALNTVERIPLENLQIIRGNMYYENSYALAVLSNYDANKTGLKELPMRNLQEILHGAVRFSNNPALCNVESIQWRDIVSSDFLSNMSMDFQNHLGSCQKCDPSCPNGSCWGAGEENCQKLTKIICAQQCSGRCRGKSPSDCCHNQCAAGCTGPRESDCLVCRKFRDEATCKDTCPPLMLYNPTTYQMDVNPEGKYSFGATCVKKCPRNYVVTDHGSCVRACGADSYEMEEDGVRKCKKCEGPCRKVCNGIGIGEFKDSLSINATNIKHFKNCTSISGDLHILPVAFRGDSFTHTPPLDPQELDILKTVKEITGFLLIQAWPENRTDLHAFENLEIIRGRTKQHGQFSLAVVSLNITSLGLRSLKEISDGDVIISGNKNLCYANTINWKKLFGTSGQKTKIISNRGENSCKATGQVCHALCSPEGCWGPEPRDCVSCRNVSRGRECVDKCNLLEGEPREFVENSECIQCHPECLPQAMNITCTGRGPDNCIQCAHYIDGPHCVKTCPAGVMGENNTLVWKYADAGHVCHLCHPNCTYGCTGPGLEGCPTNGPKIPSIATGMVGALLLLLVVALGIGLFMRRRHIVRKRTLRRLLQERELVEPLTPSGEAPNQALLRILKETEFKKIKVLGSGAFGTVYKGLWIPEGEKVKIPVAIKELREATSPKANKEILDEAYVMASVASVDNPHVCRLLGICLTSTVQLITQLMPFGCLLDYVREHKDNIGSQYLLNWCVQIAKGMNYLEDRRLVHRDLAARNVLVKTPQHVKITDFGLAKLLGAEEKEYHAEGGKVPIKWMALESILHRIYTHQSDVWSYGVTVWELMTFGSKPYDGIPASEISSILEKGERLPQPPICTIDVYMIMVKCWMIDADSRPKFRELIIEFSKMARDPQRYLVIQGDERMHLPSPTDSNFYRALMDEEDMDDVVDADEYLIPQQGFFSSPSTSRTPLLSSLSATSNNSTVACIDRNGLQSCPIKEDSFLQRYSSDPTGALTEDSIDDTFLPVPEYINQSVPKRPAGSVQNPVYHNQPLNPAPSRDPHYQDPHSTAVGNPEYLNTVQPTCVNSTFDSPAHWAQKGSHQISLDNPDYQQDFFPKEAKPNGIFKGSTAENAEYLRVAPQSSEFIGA
Chain of Ba/F3_EGFR D770_N771insSVD (P00533 with tags, fused parts or gaps DUP768-770): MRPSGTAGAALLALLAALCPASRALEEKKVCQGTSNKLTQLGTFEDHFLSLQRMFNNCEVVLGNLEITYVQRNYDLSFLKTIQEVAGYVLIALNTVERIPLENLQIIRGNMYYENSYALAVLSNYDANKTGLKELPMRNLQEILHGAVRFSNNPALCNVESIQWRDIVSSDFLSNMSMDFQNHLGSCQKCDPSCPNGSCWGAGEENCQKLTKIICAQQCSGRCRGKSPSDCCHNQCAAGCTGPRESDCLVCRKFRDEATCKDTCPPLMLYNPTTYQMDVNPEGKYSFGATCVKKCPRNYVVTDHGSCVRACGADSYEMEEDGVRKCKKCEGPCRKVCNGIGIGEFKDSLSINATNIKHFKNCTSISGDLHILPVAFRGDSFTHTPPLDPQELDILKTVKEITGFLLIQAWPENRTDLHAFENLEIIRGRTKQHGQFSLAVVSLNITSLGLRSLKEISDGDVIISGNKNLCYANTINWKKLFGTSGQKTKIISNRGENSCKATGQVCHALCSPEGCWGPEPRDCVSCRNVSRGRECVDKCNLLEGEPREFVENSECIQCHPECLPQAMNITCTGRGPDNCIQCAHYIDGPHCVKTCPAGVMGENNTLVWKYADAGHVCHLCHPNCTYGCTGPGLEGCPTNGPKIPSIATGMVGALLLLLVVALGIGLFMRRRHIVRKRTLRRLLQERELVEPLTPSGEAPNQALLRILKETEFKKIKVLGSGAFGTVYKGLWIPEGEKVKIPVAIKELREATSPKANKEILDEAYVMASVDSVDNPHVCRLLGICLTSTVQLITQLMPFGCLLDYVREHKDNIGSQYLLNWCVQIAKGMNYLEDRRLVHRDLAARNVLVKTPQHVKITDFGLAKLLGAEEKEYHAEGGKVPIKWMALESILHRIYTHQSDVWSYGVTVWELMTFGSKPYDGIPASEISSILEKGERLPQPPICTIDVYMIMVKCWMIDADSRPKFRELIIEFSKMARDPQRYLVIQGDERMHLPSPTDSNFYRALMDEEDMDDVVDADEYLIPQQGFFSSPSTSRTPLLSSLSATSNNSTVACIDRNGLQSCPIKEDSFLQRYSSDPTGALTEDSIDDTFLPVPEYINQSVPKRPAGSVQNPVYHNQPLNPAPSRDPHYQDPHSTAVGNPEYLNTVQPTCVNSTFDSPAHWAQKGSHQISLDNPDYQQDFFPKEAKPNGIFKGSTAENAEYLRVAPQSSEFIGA

As a reminder, the IC50 is the midpoint of a concentration-inhibition curve. Low readings indicate inhibition by little substance, high ones a need for much substance. `C=CC(=O)Nc1cc(Nc2nccc(-c3cn(C)c4ccccc34)n2)c(OC)cc1N(C)CCN(C)C` [AZD9291, reference compound]: the half-inhibitory concentration (IC50) in test [1] was determined as […].
As to `C=CC(=O)Nc1cc(Nc2nccc(-n3c(=O)n4c5c(cc(F)cc53)CCC4)n2)c(OC)nc1N(C)CCN(C)C` [Compound 3, N-(2-((2-(dimethylamino)ethyl)(methyl)amino)-5-((4-(8-fluoro-2-oxo-5,6-dihydro-4H-imidazo[4,5,1-ij]quinolin-1(2H)-yl)pyrimidin-2-yl)amino)-6-methoxypyridin-3-yl)acrylamide], the figures for the GI50 in test [2] and in test [3] were 3.18 nM and 13.9 nM, respectively. Moreover, the IC50 in test [1] came to 389 nM; in test [4], 16 nM.
For `C=CC(=O)Nc1cc(Nc2nccc(-n3c(=O)n4c5c(cc(F)cc53)CCC4)n2)c(OCC(F)(F)F)nc1N(C)CCN(C)C` [Compound 5, N-(2-((2-(dimethylamino)ethyl)(methyl)amino)-5-((4-(8-fluoro-2-oxo-5,6-dihydro-4H-imidazo[4,5,1-ij]quinolin-1(2H)-yl)pyrimidin-2-yl)amino)-6-(2,2,2-trifluoroethoxy)pyridin-3-yl)acrylamide], the values for the GI50 in test [2] and in test [3] were 5.07 nM and 14.9 nM, respectively. In addition, the 50% inhibitory concentration (IC50) was 154 nM in test [1] and 15.8 nM in test [4].
As for `C=CC(=O)Nc1cc(Nc2nccc(-n3c(=O)n4c5c(cc(F)cc53)CCC4)n2)c(OC)cc1N(C)CCN1CCC1` [Compound 25, N-(2-((2-(azetidin-1-yl)ethyl)(methyl)amino)-5-((4-(8-fluoro-2-oxo-5,6-dihydro-4H-imidazo[4,5,1-ij]quinolin-1(2H)-yl)pyrimidin-2-yl)amino)-4-methoxyphenyl)acrylamide], the GI50 in test [2] turned out to be 12.4 nM; in test [3], 23.4 nM. Moreover, the IC50 is 386 nM in test [1] and 25.4 nM in test [4].
For `[2H]C([2H])([2H])N(C)CCN(C)c1cc(OC)c(Nc2nccc(-n3c(=O)n4c5c(cc(F)cc53)CCC4)n2)cc1NC(=O)C=C` [Compound 28, N-(5-((4-(8-fluoro-2-oxo-5,6-dihydro-4H-imidazo[4,5,1-ij]quinolin-1(2H)-yl)pyrimidin-2-yl)amino)-4-methoxy-2-(methyl(2-(methyl(methyl-d3)amino)ethyl)amino)phenyl) acrylamide], the GI50 in test [2] was determined as 5.13 nM; in test [3], 14.3 nM. The IC50 in test [1] turned out to be 256 nM; in test [4] it was 32.2 nM.
As to `[2H]C([2H])([2H])N(CCN(C)c1cc(OC)c(Nc2nccc(-n3c(=O)n4c5c(cc(F)cc53)CCC4)n2)cc1NC(=O)C=C)C([2H])([2H])[2H]` [Compound 29, N-(2-((2-(bis(methyl-d3)amino)ethyl)(methyl)amino)-5-((4-(8-fluoro-2-oxo-5,6-dihydro-4H-imidazo[4,5,1-ij]quinolin-1(2H)-yl)pyrimidin-2-yl)amino)-4-methoxyphenyl)acrylamide], the GI50 in test [2] was 9.03 nM; in test [3], 23.4 nM. Further, the half-inhibitory concentration (IC50) in test [1] is 188 nM; in test [4], 21 nM.
With `[2H]C([2H])([2H])Oc1cc(N(C)CCN(C)C)c(NC(=O)C=C)cc1Nc1nccc(-n2c(=O)n3c4c(cc(F)cc42)CCC3)n1` [Compound 42, N-(2-((2-(dimethylamino)ethyl)(methyl)amino)-5-((4-(8-fluoro-2-oxo-5,6-dihydro-4H-imidazo[4,5,1-ij]quinolin-1(2H)-yl)pyrimidin-2-yl)amino)-4-(methoxy-d3)phenyl)acrylamide], the GI50 came out at 5.61 nM in test [2] and 13.9 nM in test [3]. Further, the IC50 in test [1] worked out at 301 nM; in test [4], 14.6 nM.
